One series addresses T1, MST4(h) (Homo sapiens, UniProt Q9P289).
T1 construct: purchased Eurofins KinaseProfiler
Put plainly: KinaseProfiler enzyme profiling. It is filed as biochemical. In a few lines: (§1)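 Two replicate runs; 70 kinases; in vitro; erianin held at 100 nM throughout the screen.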

The next series has as its target T2, DMPK(h) (Homo sapiens, UniProt Q09013).
T2 construct: purchased Eurofins KinaseProfiler
Kind of series: KinaseProfiler enzyme profiling. The class given is biochemical. The procedure, abridged: as §1

The next series concerns the target T3, MST2(h) (Homo sapiens, UniProt Q13188).
T3 construct: purchased Eurofins KinaseProfiler
Put plainly: KinaseProfiler enzyme profiling. The class given is biochemical. In a few lines: as §1

In another series the target is T4, TAO2(h) (Homo sapiens, UniProt Q9UL54).
T4 construct: purchased Eurofins KinaseProfiler
T4 sequence (Q9UL54 whole entry): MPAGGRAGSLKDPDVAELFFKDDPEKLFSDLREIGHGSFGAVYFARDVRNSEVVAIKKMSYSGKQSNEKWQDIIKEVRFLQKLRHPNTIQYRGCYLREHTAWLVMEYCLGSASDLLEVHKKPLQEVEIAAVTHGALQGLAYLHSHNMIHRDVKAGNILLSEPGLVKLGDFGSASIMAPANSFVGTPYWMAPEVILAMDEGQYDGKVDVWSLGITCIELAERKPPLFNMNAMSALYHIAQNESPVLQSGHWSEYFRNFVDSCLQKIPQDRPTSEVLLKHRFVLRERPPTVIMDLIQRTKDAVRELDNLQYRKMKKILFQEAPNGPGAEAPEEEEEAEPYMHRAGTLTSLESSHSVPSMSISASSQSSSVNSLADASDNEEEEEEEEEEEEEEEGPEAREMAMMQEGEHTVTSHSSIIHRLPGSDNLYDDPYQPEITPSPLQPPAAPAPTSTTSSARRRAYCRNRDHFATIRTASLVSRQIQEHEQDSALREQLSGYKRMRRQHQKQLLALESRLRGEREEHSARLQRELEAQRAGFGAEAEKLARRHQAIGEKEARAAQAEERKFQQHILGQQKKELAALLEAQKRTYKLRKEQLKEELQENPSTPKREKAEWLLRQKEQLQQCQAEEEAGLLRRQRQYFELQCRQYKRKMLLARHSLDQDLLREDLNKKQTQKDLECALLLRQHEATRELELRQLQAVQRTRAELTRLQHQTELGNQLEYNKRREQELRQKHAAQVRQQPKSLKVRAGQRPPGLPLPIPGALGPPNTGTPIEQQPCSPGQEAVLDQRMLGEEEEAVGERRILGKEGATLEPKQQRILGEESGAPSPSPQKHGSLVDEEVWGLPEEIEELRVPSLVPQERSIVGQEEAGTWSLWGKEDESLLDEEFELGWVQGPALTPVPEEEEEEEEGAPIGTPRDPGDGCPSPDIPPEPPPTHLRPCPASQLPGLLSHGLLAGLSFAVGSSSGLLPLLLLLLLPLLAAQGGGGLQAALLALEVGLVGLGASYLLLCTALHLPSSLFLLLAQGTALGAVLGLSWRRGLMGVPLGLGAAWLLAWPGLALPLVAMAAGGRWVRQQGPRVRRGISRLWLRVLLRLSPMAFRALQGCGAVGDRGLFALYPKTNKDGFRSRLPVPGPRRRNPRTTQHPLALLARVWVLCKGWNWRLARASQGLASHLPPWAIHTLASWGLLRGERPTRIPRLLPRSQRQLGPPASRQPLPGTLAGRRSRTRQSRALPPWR
Put plainly: KinaseProfiler enzyme profiling. The class given is biochemical. The procedure, abridged:
as §1

For the next series, the target named is T5, CDK2/cyclinE(h) (Homo sapiens, UniProt P24941).
T5 construct: purchased Eurofins KinaseProfiler
Put plainly: KinaseProfiler enzyme profiling. The class given is biochemical. In a few lines:
as §1

For the next series, the target named is T6, BRK(h) (Homo sapiens, UniProt Q13882).
T6 construct: purchased Eurofins KinaseProfiler
Kind of series: KinaseProfiler enzyme profiling. The class given is biochemical. In a few lines:
as §1

The target of a further series is T7, Bmx(h) (Homo sapiens, UniProt P51813).
T7 construct: purchased Eurofins KinaseProfiler
T7 sequence (P51813 whole entry): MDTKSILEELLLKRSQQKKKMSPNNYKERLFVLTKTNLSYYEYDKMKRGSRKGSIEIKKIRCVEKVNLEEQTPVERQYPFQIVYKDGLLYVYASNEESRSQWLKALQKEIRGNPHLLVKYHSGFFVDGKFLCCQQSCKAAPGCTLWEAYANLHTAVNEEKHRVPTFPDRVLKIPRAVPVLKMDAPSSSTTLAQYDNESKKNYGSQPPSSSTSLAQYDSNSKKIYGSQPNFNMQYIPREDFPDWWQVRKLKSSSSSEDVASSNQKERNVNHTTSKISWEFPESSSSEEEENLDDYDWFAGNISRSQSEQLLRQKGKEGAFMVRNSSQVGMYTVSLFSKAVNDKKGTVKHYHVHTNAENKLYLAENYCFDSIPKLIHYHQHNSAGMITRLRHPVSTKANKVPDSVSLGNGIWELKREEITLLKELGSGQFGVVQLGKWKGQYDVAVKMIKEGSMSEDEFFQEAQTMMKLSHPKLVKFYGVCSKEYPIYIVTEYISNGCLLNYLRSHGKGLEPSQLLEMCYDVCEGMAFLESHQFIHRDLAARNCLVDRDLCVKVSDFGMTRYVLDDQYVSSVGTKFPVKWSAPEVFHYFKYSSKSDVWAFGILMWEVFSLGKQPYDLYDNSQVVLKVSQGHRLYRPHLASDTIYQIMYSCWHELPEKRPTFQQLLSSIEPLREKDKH
Put plainly: KinaseProfiler enzyme profiling. The class given is biochemical. In a few lines: as §1

For the next series, the target named is T8, ARK5(h) (Homo sapiens, UniProt O60285).
T8 construct: purchased Eurofins KinaseProfiler
Put plainly: KinaseProfiler enzyme profiling. It is filed as biochemical. The procedure, abridged:
as §1

The target of the next series is T9, Fgr(h) (Homo sapiens, UniProt P09769).
T9 construct: purchased Eurofins KinaseProfiler
T9 sequence (P09769 whole entry): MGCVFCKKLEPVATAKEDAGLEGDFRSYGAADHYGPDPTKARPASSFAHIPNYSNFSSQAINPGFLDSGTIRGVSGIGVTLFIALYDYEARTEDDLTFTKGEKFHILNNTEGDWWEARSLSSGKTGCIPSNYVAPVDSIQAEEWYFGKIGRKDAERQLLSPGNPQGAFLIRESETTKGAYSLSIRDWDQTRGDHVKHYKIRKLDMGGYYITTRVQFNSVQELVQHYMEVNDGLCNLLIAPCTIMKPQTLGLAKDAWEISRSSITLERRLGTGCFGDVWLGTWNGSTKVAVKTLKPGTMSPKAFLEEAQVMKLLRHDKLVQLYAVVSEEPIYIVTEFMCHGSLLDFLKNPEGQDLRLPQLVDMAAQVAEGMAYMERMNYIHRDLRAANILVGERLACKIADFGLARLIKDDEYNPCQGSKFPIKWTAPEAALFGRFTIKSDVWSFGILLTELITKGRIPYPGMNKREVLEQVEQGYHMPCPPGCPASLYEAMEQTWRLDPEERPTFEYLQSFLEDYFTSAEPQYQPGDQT
Kind of series: KinaseProfiler enzyme profiling. The settings on record: 100 nM. The class given is biochemical. The procedure, abridged: as §1

Series [1] has as its system SK-MEL-2, A375, SK-MEL-28, and HCT 116. Put plainly: Combination index assay. The class given is cell-based, human. Conditions: erianin with vemurafenib; most of the CI; BRAF and RAS mutant cell lines. The procedure: (§2) The synergism and antagonism (CI value) were determined and analyzed using CompuSyn 1.0.
as §2

In the next series the test system is melanoma PDX. Put plainly: Patient-derived xenograft (PDX). The class given is in vivo. As to the method:
Fig. 7 Erianin exerts antitumor efficacy in melanoma and colorectal cancer in vivo. a Tumor pharmacodynamic assay was performed in tumor-bearing NPG mice (tumor has been passaged from melanoma patient to mice for three generations). The photographs show tumors from melanoma PDX mice treated with vehicle or drugs. b The effect of erianin on the volume of PDX tumors over time (within 78 days) was plotted. Vehicle, erianin (50 mg/kg, once a day), vemurafenib (50 mg/kg, once a day), erianin and vemurafenib combination therapy, cobimetinib (5 mg/kg, twice a week) or vemurafenib and cobimetinib combination therapy (once a day and twice a week, respectively) were administered by oral gavage, n = 8 in each group. Tumor volume was measured once a week. […] Scale bars: 20 μm. One-way ANOVA test. ***p < 0.001. e Antitumor efficacy of erianin with or without immunity using B16F10 cell xenograft in C57BL-6J mouse. f, g Trend of tumor volume over time and tumor weight was measured after treatment on the last day of the study.

For the next series, the system named is SK-MEL-28 (BRAF V600E). Kind of series: Cell proliferation MTT assay. It is filed as cell-based. The settings on record: Homo sapiens, SK-MEL-28, 72 h. The procedure:
as §2
(§3) For cytotoxicity test, normal NHDF (5000 cells/well) and NHEM cell line (3000 cells/well) were planted into 96-well plates. For cell proliferation assay, A375 (1500 cells/well), SK-MEL-28 (3000 cells/well), SK-MEL-2 (4000 cells/well), and HCT116 (1500 cells/well) were planted into 96-well plates, determined concentration of drug was added after culture for 24 h. The viability of the cells was detected within 72 h using MTT solution (5 mg/mL). The absorbance at 570/490 nm was quantified by the use of the microplate reader.

The test system of a further series is SK-MEL-2 (NRAS mut). Kind of series: Cell proliferation MTT assay. It is filed as cell-based. Conditions: Homo sapiens, SK-MEL-2, 72 h. As to the method:
as §2, §3

The subject of a further series is HCT116 (KRAS mut). Kind of series: Cell proliferation MTT assay. It is filed as cell-based. Conditions: Homo sapiens, HCT-116, 72 h. As to the method: as §2, §3
The test system of the next series is A375 (BRAF V600E). Kind of series: Cell proliferation MTT assay. The class given is cell-based. The settings on record: Homo sapiens, A-375, 72 h. The procedure: as §2, §3
For series [2], the target named is active GST-MEK1 full length (Homo sapiens, UniProt Q02750). Put plainly: In vitro kinase assay (western blotting). The class given is biochemical. Conditions: 12.5 to 50 nM, dose-dependent. As to the method: (§4) After incubated with 100–400 μM ATP in kinase assay buffer for 30 min, the phosphorylation of the substrate/total substrate protein was detected by western blotting. For ADP-glo kinase assay, unconsumed ATP was depleted with the addition of ADP-Glo™. Followed by kinase detection reagent to convert ADP to ATP, consumption of ATP was detected to evaluate the kinase activity. For more details, refer to the manufacturer’s instructions of ADP-Glo™ Kinase Assay.
Chain of active GST-MEK1 full length (Q02750 whole entry): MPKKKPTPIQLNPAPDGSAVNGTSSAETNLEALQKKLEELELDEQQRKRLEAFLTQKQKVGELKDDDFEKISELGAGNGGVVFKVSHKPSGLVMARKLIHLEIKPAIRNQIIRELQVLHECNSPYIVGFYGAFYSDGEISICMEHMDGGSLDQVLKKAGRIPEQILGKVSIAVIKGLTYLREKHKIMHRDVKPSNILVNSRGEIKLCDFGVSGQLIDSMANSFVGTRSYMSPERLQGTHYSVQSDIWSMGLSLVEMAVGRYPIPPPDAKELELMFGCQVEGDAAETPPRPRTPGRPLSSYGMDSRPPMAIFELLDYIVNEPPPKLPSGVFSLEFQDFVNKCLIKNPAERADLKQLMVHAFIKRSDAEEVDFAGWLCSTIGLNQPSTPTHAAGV

The next series addresses T10, active CRAF (306-end) (Homo sapiens, UniProt P04049, Y340E/Y341E).
T10 construct: purchased Signal Chem R01-13G
Kind of series: In vitro kinase assay (western blotting). It is filed as biochemical. The settings on record: 12.5 to 50 nM, dose-dependent. As to the method:
as §4

For series [3], the target named is active GST-MEK2 full length (Homo sapiens, UniProt P36507). Kind of series: In vitro kinase assay (western blotting). It is filed as biochemical. The settings on record: 12.5 to 50 nM, dose-dependent. As to the method:
as §4

For series [4], the system named is MAPK signaling pathway (phospho-CRAF, phospho-MEK1/2, phospho-ERK1/2). Kind of series: Western blotting of MAPK signaling pathway in cells. The settings on record: both BRAF V600E and RAS mutant cell lines, 24 h.
Description: Data were shown as means ± S.D. of three independent experiments. The asterisks (*p < 0.05, **p < 0.01, ***p < 0.001) indicate a significant difference in the expression of phosphorylation of ERK1 or ERK2 vs total ERK1 or ERK2 in control and erianin-treated group. g The luminescent ADP detection assay was developed to detect the luminescence signal of ATP-to-ADP using the same concentration kinases and substrates described in above kinase assay.
Protein was quantified using a BCA assay kit and then western blotting was conducted.

T2 sequence (Q09013 whole entry): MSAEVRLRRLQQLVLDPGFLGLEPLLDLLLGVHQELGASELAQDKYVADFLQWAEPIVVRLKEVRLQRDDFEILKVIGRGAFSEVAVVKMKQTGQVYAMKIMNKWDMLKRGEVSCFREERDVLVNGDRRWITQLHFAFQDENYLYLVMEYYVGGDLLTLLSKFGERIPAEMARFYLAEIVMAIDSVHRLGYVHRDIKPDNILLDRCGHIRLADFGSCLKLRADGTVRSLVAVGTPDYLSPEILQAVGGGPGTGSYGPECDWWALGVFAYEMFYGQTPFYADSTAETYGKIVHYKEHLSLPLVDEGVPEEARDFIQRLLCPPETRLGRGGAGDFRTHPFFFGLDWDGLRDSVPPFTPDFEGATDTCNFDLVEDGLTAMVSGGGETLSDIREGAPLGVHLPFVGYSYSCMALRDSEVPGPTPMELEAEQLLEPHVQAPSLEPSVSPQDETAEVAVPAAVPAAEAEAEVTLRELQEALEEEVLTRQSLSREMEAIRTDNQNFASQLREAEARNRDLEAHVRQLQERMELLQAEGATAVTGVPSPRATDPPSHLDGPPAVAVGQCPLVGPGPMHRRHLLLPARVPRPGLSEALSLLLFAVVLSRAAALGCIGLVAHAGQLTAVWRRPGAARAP
Chain of active GST-MEK2 full length (P36507 whole entry): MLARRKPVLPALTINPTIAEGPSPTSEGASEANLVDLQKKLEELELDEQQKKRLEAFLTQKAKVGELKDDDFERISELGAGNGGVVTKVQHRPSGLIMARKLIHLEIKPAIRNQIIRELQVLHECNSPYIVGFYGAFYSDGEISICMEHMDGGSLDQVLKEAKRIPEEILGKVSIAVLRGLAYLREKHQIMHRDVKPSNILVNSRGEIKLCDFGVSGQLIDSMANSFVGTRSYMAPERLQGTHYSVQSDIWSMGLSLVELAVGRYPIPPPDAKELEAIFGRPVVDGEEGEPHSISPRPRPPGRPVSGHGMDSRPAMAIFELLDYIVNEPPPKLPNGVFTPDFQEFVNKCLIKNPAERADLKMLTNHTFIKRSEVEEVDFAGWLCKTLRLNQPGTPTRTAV
T3 sequence (Q13188 whole entry): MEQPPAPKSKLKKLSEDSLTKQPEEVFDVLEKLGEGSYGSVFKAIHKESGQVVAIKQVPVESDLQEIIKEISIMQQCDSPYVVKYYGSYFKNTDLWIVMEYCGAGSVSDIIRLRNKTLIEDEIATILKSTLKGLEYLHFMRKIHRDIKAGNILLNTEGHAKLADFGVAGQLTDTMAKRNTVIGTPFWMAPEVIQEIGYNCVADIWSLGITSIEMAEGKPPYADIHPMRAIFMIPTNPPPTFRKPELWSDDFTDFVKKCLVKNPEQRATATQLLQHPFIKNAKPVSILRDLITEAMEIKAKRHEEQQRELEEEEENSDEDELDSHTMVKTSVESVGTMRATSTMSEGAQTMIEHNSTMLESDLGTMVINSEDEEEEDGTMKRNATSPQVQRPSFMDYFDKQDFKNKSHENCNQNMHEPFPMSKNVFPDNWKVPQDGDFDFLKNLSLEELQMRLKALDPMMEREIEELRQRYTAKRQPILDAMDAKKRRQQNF
T1 sequence (Q9P289 whole entry): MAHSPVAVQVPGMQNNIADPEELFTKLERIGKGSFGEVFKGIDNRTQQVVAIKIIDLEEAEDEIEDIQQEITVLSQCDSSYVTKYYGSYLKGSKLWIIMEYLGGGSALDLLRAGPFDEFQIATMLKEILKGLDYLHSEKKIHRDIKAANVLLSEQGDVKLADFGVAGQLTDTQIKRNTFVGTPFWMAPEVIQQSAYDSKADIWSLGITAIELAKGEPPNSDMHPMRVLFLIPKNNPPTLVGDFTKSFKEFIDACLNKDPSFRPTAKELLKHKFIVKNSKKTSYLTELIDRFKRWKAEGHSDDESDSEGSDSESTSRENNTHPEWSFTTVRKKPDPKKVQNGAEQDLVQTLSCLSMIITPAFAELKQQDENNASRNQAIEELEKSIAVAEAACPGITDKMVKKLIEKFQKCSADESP

As to `C=C1C(=O)[C@]23[C@H](O)[C@H]1CC[C@H]2[C@@]12CO[C@]3(O)[C@@H](O)[C@@H]1C(C)(C)CC[C@@H]2O` [Oridonin], the activity at 10 µM turned out to be 140% at MST4(h); 104% on DMPK(h); 54% at MST2(h); 78% on TAO2(h); 57% on CDK2/cyclinE(h).
In the case of `COc1cc2oc(-c3ccc(O)c(O)c3)cc(=O)c2c(O)c1OC` [Cirsiliol], the figures for the activity at 10 µM at BRK(h), at Bmx(h) and on ARK5(h) were 105%, 89% and 97%, respectively.
For `COc1ccc(CCc2cc(OC)c(OC)c(OC)c2)cc1O` [Erianin], at Fgr(h), the activity at 0.1 µM is 91%. For the same compound, in series [1], the “combination index (CI)” value is on record as not above 1. Further, the body weight entry in the series with melanoma PDX (50 mg/kg once a day, oral gavage) is given as “without significant changes”. Also, in the series with melanoma PDX (HE staining of liver and spleen), the “toxicity sign (HE staining)” value is on record as “neither erianin group nor erianin-vemurafenib combination therapy showed toxicity sign”. Moreover, in the series on melanoma PDX (oral gavage, erianin, vemurafenib 50 mg/kg once a day, cobimetinib 5 mg/kg twice a week, within 78 days), the tumor volume entry is “significant decrease”. The half-maximal inhibitory concentration (IC50) was found to be 50.6 ± 1.7 nM in the series on SK-MEL-28 (BRAF V600E), 59.7 ± 7.2 nM with SK-MEL-2 (NRAS mut), 20.6 ± 2.2 nM in the series with HCT116 (KRAS mut) and 12 ± 0.9 nM in the series on A375 (BRAF V600E). Further, in [2], the “MEK1 kinase activity (phosphorylation of ERK1)” value is recorded as “inhibited”. The “CRAF kinase activity (phosphorylation of MEK1)” value at active CRAF (306-end) is listed as “inhibited”. In addition, the “MEK2 kinase activity (phosphorylation of ERK2)” value in [3] is “inhibited”. In [4], the “constitutive activation of MAPK signaling pathway” value was “inhibited constitutive activation of MAPK signaling pathway”.
